The results in this text go back to patent US5767128A, “1,3-dihydro-2H-pyrrolo[2,3-b]pyridin-2-one compounds” (Adir et Compagnie, priority 1994, dated 1998).

Like-named read-outs stand apart in the source and are kept apart here.

The test system of assay [1] is cramps induced in the mouse by phenylbenzoquinone. The experiment in a line: Cramps induced with phenylbenzoquinone (SIEGMUND test), analgesic activity, per os. Format: in vivo, mouse (male CD-1). Conditions: po, read-out: PBO Whrithing, % inhibition (% decrease in the number of cramps compared with the control animals). As to the method: 2) Cramps induced with phenylbenzoquinone
Male CD-1 mice randomly divided into groups of 5 receive the test products per os 30 minutes before the intraperitoneal injection of 0.25 cm3 of a 0.01% solution of phenylbenzoquinone in a 95:5 mixture of water and ethanol.
The number of cramps is counted between the 5th and the 15th minute after the injection of phenylbenzoquinone.
(§1) The percentage activity was evaluated for each compound (% decrease in the number of cramps in the treated animals compared with the control animals).

Assay [2] has as its system abdominal cramps induced in the rat by acetic acid. As to the kind of experiment: Cramps induced with acetic acid (KOSTER test), analgesic activity, per os. It is filed as in vivo, rat (male Wistar). To be noted: po, read-out: Acetic Acid Writhing, % inhibition (% decrease in the number of cramps compared with the control animals). As to the method: 1) Cramps induced with acetic acid
Male Wistar rats randomly divided into groups of 5 (weight 150±10 g) receive the test products per os 30 minutes before the intraperitoneal injection of 1 cm^3 of 1% acetic acid.
The number of cramps is counted during the 25 minutes which follow the injection.
as §1
For orientation: Writhing tests count abdominal constrictions after an irritant is injected.

[3] abbreviates: mouse, 50 mg/kg per os, 30 minutes before phenylbenzoquinone, count 5th to 15th minute.
The mark [4] stands for this setting: rat, 50 mg/kg per os, 30 minutes before acetic acid, 25 minutes count.

`CC(=O)Oc1ccccc1C(=O)O` [Aspirin, reference compound]: the inhibition at 50 mg/kg in assay [1] (Mus musculus) turned out to be 62%; in assay [2] (Rattus norvegicus), 56%.
For the molecule `Cn1c(=O)oc2cc(C(=O)c3ccccc3)cnc21` [Example 5, 3-METHYL-6-BENZOYLOXAZOLO[4,5-b]PYRIDIN-2(3-ONE], the inhibition at 50 mg/kg in assay [1] (setting [3]) and in assay [2] (setting [4]) was 85% in each case.
As for `O=C(c1ccccc1)c1cnc2[nH]c(=O)oc2c1` [Example 6, 6-BENZOYLOXAZOLO[4,5-b]PYRIDIN-2(3H)-ONE], in assay [2] (setting [4]), the inhibition at 50 mg/kg came out at 88%.
Still for that read-out and setting: the figure for `CC(=O)c1cnc2c(c1)CC(=O)N2C` [Example 13, 1,3-DIHYDRO-1-METHYL-5-ACETYL-2H-PYRROLO[2,3-b]PYRIDIN-2-ONE] is 96%.
`Cn1c(=O)oc2cc(CN3CCN(c4ccccc4)CC3)cnc21` [Example 16, 3-METHYL-6-[(4-PHENYLPIPERAZIN-1-YL)METHYL]OXAZOLO[4,5-b]PYRIDIN-2(3H)-ONE]: the inhibition at 50 mg/kg in assay [1] (setting [3]) amounted to 57%; in assay [2] (setting [4]) it was 98%.
For the molecule `Cn1c(=O)oc2cc(CCCN3CCN(c4ccccc4)CC3)cnc21` [Example 20, 3-METHYL-6-[3-(4-PHENYLPIPERAZIN-1-YL)PROP-1-YL]OXAZOLO[4,5-b]PYRIDIN-2(3H)-ONE], in assay [1] (setting [3]), the inhibition at 50 mg/kg came out at 100%.
Regarding `Cn1c(=O)oc2cc(C(=O)CN3CCN(c4ccccc4)CC3)cnc21` [Example 22, 3-METHYL-6-[2-(4-PHENYLPIPERAZIN-1-YL)ACETYL]OXAZOLO[4,5-b]PYRIDIN-2(3H)-ONE], the results for the inhibition at 50 mg/kg in assay [1] (setting [3]) and in assay [2] (setting [4]) were 53% and 97%, respectively.
For `Cn1c(=O)oc2cc(C(O)CN3CCN(c4ccccc4)CC3)cnc21` (stereo not drawn) [Example 24, 3-METHYL-6-[2-(4-PHENYLPIPERAZIN-1-YL)-1-HYDROXYETHYL]OXAZOLO[4,5-b]PYRIDIN-2(3H)-ONE], in that order: 97% and 86%.
Take `CN1C(=O)Cc2cc(CN3CCN(c4ccccc4)CC3)cnc21` [Example 46, 1,3-DIHYDRO-5-(4-PHENYLPIPERAZIN-1-YLMETHYL)-1-METHYL-2H-PYRROLO[2,3-b]PYRIDIN-2-ONE]: the inhibition at 50 mg/kg in assay [1] (setting [3]) stood at 67%.
On the same count and under the same terms, the figure for `CN1C(=O)Cc2cc(C(=O)CN3CCN(c4ccccc4)CC3)cnc21` [Example 47, 1,3-DIHYDRO-5-[2-(4-PHENYLPIPERAZIN-1-YL)ACETYL)-1-METHYL-2H-PYRROLO[2,3-b]PYRIDIN-2-ONE] is 90%.

By inhibition is commonly meant the share of the control response that was lost under treatment.
